Results from paper PMC10204553, “Identification of the Binding Epitope of an Anti-Mouse CCR6 Monoclonal Antibody (C6Mab-13) Using 1× Alanine Scanning” (Antibodies, 2023).

Assays:
C6Mab-13 [1] = assay: Surface plasmon resonance (Biacore X100), C6Mab-13 immobilized on CM5 chip; assay type: binding, rat; settings: KD could not be calculated
Experimental: The dissociation constants (KD) between C6Mab-13 and the epitope region peptides were measured using SPR. C6Mab-13 was immobilized on the CM5 sensor chip according to the manufacturer’s protocol (Cytiva, Marlborough, MA, USA). In summary, C6Mab-13 was diluted to 10 μg/mL by an acetate buffer (pH 4.0; Cytiva) and immobilized using an amine-coupling reaction. The surface of flow cell 2 of the CM5 sensor chip was treated with 1-ethyl-3-(3-dimethylaminopropyl)-carbodiimide and N-hydroxysuccinimide (NHS), followed by an injection of C6Mab-13. The unreacted NHS-ester was blocked with ethanolamine after C6Mab-13 immobilization. The KD between C6Mab-13 and mCCR6 peptides (50, 25, 12.5, 6.25, and 3.13 µM) were measured using Biacore X100 (Cytiva) at 25 °C. The buffer was filtrated with PBS containing 0.05% (v/v) Tween 20 and 0.24% (v/v) dimethyl sulfoxide (FUJIFILM Wako Pure Chemical Corporation, Osaka, Japan). The single-cycle kinetics method was used to measure the binding signals. The data were analyzed using 1:1 binding kinetics to determine the association rate constant (ka), dissociation rate constant (kd), and KD using BIAevaluation software (Cytiva).

C6Mab-13 [2] = assay: ELISA of C6Mab-13 with immobilized alanine-substituted mCCR6 peptides; assay type: binding, rat; settings: for binding of C6Mab-13 in ELISA (in words): ELISA with alanine-substituted peptides, Figure 1A; for C6Mab-13 Reactivity: ELISA, peptide immobilized at 10 µg/mL, 30 min 37 °C, C6Mab-13 10 µg/mL, OD at 655 nm
Experimental: Synthesized mCCR6 peptides were immobilized on Nunc Maxisorp 96-well immunoplates (Thermo Fisher Scientific Inc., Waltham, MA, USA) at 10 µg/mL for 30 min at 37 °C. After being washed with phosphate-buffered saline (PBS) containing 0.05% Tween20 (PBST; Nacalai Tesque, Inc., Kyoto, Japan), the wells were blocked with 1% bovine serum albumin (BSA)-containing PBST for 30 min at 37 °C. The plates were incubated with 10 µg/mL of C6Mab-13 for 30 min at 37 °C followed by peroxidase-conjugated anti-rat immunoglobulins (1:20,000 diluted; Sigma-Aldrich Corp.) for 30 min at 37 °C. Enzymatic reactions were conducted at room temperature using the ELISA POD Substrate TMB Kit (Nacalai Tesque, Inc.). Optical density was measured at 655 nm using an iMark microplate reader (Bio-Rad Laboratories, Inc., Berkeley, CA, USA).
Figure 1 Determination of the C6Mab-13 epitope by ELISA using alanine-substituted peptides of mCCR6. (A) Synthesized peptides of mCCR6 (10 µg/mL) were immobilized on immunoplates for 30 min at 37 °C. The plates were incubated with 10 µg/mL of C6Mab-13, followed by treatment with peroxidase-conjugated anti-rat immunoglobulins. Optical density was measured at 655 nm (OD655) using a microplate reader. (B) The schematic illustration of mCCR6 and the C6Mab-13 epitope. The C6Mab-13 epitope of mCCR6 comprises Asp11 from ELISA experiments.

MNSTESYFATDDYDNTEYYS [G9A, 1× alanine-substituted mCCR6 1–20 peptide]
binding to C6Mab-13 in SPR analysis (in words) (C6Mab-13 [1]): lack of binding | binding of C6Mab-13 in ELISA (in words) (C6Mab-13 [2]): bound | C6Mab-13 Reactivity (C6Mab-13 [2]): +++ (OD655 ≧ 0.3)

MNSTESYFGTADYDNTEYYS [D11A, 1× alanine-substituted mCCR6 1–20 peptide]
binding to C6Mab-13 in SPR analysis (in words) (C6Mab-13 [1]): lack of binding | binding of C6Mab-13 in ELISA (in words) (C6Mab-13 [2]): did not react | C6Mab-13 Reactivity (C6Mab-13 [2]): - (OD655 < 0.1)
